Laboratory results: patent publication US20100168102A9, “Amide Derivatives as Kinase Inhibitors” (Devgen NV, priority 2005, published 2010)

Tests used:
PKC epsilon = molecular target: T1, PKC epsilon (Homo sapiens, UniProt Q02156); assay: Biochemical assay for PKC epsilon (fluorescence polarization, Protein Kinase C Assay Kit, Red); conditions: compounds of Formula XIV, Table 3; read-out: IC50 μM PKCε
T1 construct: purchased Invitrogen P2282
T1 sequence (Q02156 1-737): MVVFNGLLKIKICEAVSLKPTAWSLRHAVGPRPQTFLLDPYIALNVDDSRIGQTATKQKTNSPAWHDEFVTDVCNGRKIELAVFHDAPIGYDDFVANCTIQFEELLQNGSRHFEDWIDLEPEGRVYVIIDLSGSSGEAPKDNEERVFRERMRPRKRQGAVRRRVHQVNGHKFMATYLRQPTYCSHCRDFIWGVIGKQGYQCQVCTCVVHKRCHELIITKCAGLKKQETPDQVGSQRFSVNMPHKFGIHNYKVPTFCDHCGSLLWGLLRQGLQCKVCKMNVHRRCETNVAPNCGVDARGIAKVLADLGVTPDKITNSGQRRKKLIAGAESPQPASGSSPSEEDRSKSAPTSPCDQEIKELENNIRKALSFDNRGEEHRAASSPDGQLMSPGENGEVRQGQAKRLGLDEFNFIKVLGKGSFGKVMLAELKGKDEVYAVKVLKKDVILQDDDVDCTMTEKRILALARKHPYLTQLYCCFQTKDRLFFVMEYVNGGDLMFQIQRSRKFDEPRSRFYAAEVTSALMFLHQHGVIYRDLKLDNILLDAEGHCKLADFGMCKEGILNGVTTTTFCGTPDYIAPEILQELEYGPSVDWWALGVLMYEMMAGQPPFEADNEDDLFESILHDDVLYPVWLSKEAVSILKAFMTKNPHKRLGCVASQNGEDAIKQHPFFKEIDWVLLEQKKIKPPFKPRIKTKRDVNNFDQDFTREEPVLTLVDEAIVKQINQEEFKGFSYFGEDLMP
Method in brief: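 PKC epsilon at 10 ng/ml final was preincubated 30 min at room temperature with compound in HEPES pH 7.4 with DTT and Triton X-100. ATP/protein substrate was then added in buffer with MgCl2 and CaCl2 for 80 min. The reaction was stopped with EDTA, phosphorylation was detected by fluorescence polarization with rhodamine tracer and anti-phosphoserine antibody, and IC50 values came from curve fits.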

human ROCKα/ROCKII mix = molecular target: T2, human ROCKα/ROCKII mix (Homo sapiens, UniProt O75116); assay: Biochemical assay for ROCK (fluorescence polarization, ROCK IMAP Kit); conditions: compounds of Formula XIV, Table 3
T2 construct: purchased Upstate Biotechnology 14-451
T2 sequence (O75116 11-552 limits assumed): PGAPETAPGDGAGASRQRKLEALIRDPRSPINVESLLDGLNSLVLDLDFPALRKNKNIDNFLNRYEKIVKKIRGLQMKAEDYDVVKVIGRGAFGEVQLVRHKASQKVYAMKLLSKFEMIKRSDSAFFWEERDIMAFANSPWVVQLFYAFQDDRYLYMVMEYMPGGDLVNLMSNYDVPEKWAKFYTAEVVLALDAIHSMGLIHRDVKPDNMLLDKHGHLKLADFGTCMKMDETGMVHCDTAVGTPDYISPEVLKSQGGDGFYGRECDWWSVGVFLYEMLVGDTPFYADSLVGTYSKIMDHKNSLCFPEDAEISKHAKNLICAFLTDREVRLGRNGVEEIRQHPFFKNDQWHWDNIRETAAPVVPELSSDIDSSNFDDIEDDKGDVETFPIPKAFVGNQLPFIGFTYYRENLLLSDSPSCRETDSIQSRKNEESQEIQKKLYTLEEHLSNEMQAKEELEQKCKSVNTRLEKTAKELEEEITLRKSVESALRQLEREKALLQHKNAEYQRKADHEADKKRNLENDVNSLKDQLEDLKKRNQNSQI

| Compound | IC50 (PKC epsilon) [µM] | IC50 (human ROCKα/ROCKII mix) [µM] |
| --- | --- | --- |
| NC(CC(=O)NC(c1ccccc1)c1ccccc1)c1ccc(C(=O)Nc2ccncc2)cc1 (stereo not drawn) [Compound 225, 4-[1-Amino-2-(benzhydryl-carbamoyl)-ethyl]-N-pyridin-4-yl-benzamide] | 0.5 to 5 | 0.05 to 0.5 |
| NC(CC(=O)NC1c2ccccc2-c2ccccc21)c1ccc(C(=O)Nc2ccncc2)cc1 (stereo not drawn) [Compound 227, 4-[1-Amino-2-(9H-fluoren-9-ylcarbamoyl)-ethyl]-N-pyridin-4-yl-benzamide] | 0.5 to 5 | 0.05 to 0.5 |
| CC(NC(=O)CC(N)c1ccc(C(=O)Nc2ccncc2)cc1)c1cccc2ccccc12 (stereo not drawn) [Compound 229, 4-{1-Amino-2-(1-naphtalen-1-yl-ethylcarbamoyl)-ethyl]-N-pyridin-4-yl-benzamide] | 0.5 to 5 | 0.05 to 0.5 |
| CC(NC(=O)CC(N)c1ccc(C(=O)Nc2ccncc2)cc1)c1cccc2ccccc12 (stereo not drawn) [Compound 230, 4-[1-Amino-2-(1-naphtalen-1-yl-ethylcarbamoyl)-ethyl]-N-pyridin-4-yl-benzamide] | 0.5 to 5 | 0.05 to 0.5 |
| Cc1ccccc1CNC(=O)CC(N)c1ccc(C(=O)Nc2ccncc2)cc1 (stereo not drawn) [Compound 231, 4-[1-Amino-2-(2-methyl-benzylcarbamoyl)-ethyl]-N-pyridin-4-yl-benzamide] | 0.5 to 5 | 0.05 to 0.5 |
| Cc1ccc(C)c(CNC(=O)CC(N)c2ccc(C(=O)Nc3ccncc3)cc2)c1 (stereo not drawn) [Compound 234, 4-[1-Amino-2-(2,5-dimethyl-benzylcarbamoyl)-ethyl]-N-pyridin-4-yl-benzamide] | 0.5 to 5 | 0.05 to 0.5 |
| COc1ccc(CNC(=O)CC(N)c2ccc(C(=O)Nc3ccncc3)cc2)cc1 (stereo not drawn) [Compound 239, 4-[1-Amino-2-(4-methoxy-benzylcarbamoyl)-ethyl]-N-pyridin-4-yl-benzamide] | 0.5 to 5 | 0.05 to 0.5 |

The next lines start with the values.

| IC50 (PKC epsilon) [µM] | IC50 (human ROCKα/ROCKII mix) [µM] | Compound |
| --- | --- | --- |
| 0.05 to 0.5 | 0.05 to 0.5 | NC(CC(=O)NC1CCc2ccccc21)c1ccc(C(=O)Nc2ccncc2)cc1 (stereo not drawn) [Compound 228, 4-[1-Amino-2-(indan-1-ylcarbamoyl)-ethyl]-N-pyridin-4-yl-benzamide] |
| 0.5 to 5 | 0.05 to 0.5 | Cc1cccc(CNC(=O)CC(N)c2ccc(C(=O)Nc3ccncc3)cc2)c1 (stereo not drawn) [Compound 232, 4-[1-Amino-2-(3-methyl-benzylcarbamoyl)-ethyl]-N-pyridin-4-yl-benzamide] |
| 0.5 to 5 | 0.05 to 0.5 | Cc1ccc(CNC(=O)CC(N)c2ccc(C(=O)Nc3ccncc3)cc2)cc1 (stereo not drawn) [Compound 233, 4-[1-Amino-2-(4-methyl-benzylcarbamoyl)-ethyl]-N-pyridin-4-yl-benzamide] |
| 5 to 50 | 0.05 to 0.5 | COc1cccc(CNC(=O)CC(N)c2ccc(C(=O)Nc3ccncc3)cc2)c1OC (stereo not drawn) [Compound 238, 4-[1-Amino-2-(2,3-dimethoxy-benzylcarbamoyl)-ethyl]-N-pyridin-4-yl-benzamide] |
| 5 to 50 | 0.05 to 0.5 | COc1ccc(CNC(=O)CC(N)c2ccc(C(=O)Nc3ccncc3)cc2)cc1OC (stereo not drawn) [Compound 240, 4-[1-Amino-2-(3,4-dimethoxy-benzylcarbamoyl)-ethyl]-N-pyridin-4-yl-benzamide] |
| 0.5 to 5 | 0.05 to 0.5 | COc1ccc(OC)c(CNC(=O)CC(N)c2ccc(C(=O)Nc3ccncc3)cc2)c1 (stereo not drawn) [Compound 242, 4-[1-Amino-2-(2,5-dimethoxy-benzylcarbamoyl)-ethyl]-N-pyridin-4-yl-benzamide] |
| 0.5 to 5 | 0.05 to 0.5 | COc1cccc(OC)c1CNC(=O)CC(N)c1ccc(C(=O)Nc2ccncc2)cc1 (stereo not drawn) [Compound 243, 4-[1-Amino-2-(2,6-dimethoxy-benzylcarbamoyl)-ethy]-N-pyridin-4-yl-benzamide] |
| 0.5 to 5 | 0.05 to 0.5 | COc1ccc(C(NC(=O)CC(N)c2ccc(C(=O)Nc3ccncc3)cc2)c2ccc(OC)cc2)cc1 (stereo not drawn) [Compound 244, 4-(1-Amino-2-{[bis-(4-methoxy-phenyl)-methyl]-carbamoyl}-ethyl)-N-pyridin-4-yl-benzamide] |
